Measurements published in patent US20220160705A1, “METHODS FOR CONTROLLING PROSTAGLANDIN-MEDIATED BIOLOGICAL PROCESSES” (Cornell University, priority 2019, published 2022).
Entries after “also recorded” stand apart in the source; their conditions may differ.

Key:
IRE1α-XBP1 signaling = experiment: Xbp1s and Ptges mRNA in peritoneal leukocytes after acetic acid injection (RT-qPCR); type: in vivo, C57BL/6J mice; settings: i.p. 6 hours and 30 minutes before 0.9% v/v acetic acid; KIRA6 25 mg/kg, MKC8866 20 mg/kg; vs vehicle
Procedure: Total RNA was isolated using RNeasy Mini kit or QIAzol lysis reagent (Qiagen) according to the manufacturer's instructions. RNA (0.1-1 μg) was reverse-transcribed to generate cDNA using the qScript cDNA synthesis kit (Quantabio). Quantitative RT-PCR was performed using PerfeCTa SYBR green fastmix (Quantabio) and TaqMan Universal PCR master mix (Life Technologies) on a QuantStudio 6 Flex real-time PCR system (Applied Biosystems). Normalized gene expression was calculated by comparative threshold cycle method using ACTB or Actb as a control. Xbp1 splicing assays were performed as described by Lee et al. (Proc Natl Acad Sci USA 100, 9946 (Aug. 19, 2003)). PCR products were separated by electrophoresis through a 2.5% agarose gel and visualized by ethidium bromide staining. Primers used in this study are described in Table 9.
(§1) To determine if pharmacological disabling of IRE1α-XBP1 signaling could reduce inflammatory visceral pain, two commercially available inhibitors of IRE1α were employed: the kinase domain-specific inhibitor KIRA6 (25 mg/kg) and the RNAse domain-specific inhibitor MKC8866 (20 mg/kg).
(§2) These inhibitors were independently administered intraperitoneally to C57BL/6J mice 6 hours and 30 minutes before acetic acid injection, and writhing behaviors were recorded for 30 minutes.

C57BL/6J mice [1] = experiment: Acetic acid-induced writhing model of inflammatory visceral pain; type: in vivo; settings: i.p. 6 hours and 30 minutes before 0.9% v/v acetic acid (5 ml/kg); recorded for 30 minutes; KIRA6 25 mg/kg, MKC8866 20 mg/kg, Celecoxib 20 mg/kg; vs vehicle
Procedure: (§3) All behavioral measurements were performed by a blinded observer before and after surgery (postoperative days 1-21) or acetic acid intraperitoneal injection (15-30 min). Animals were acclimated to the testing devices and/or places for 3 days, and baseline measurements were taken for at least 4 consecutive days before the surgery or acetic acid.
Writhing spontaneous pain behaviors were evaluated after intraperitoneal injection of 0.9% acetic acid (v/v, 5 ml/kg). The number of writhing responses was quantified immediately after acetic acid injection for 30 min in 5 min intervals by an observer blinded to genotype. Writings induced acetic acid are overt stretching behaviors indicative of abdominal pain, a phenomenon that is dependent upon mPGES-1 and PGE2 (Kamei et al. J Biol Chem 279, 33684 (Aug. 6, 2004); Trebino et al. Proc Nat Acad Sci USA 100, 9044 (Jul. 22, 2003)).
as §1, §2

C57BL/6J mice [2] = experiment: Paw incision model of post-surgical pain, behavioral tests; type: in vivo; settings: i.p. 6 hours and 30 minutes before paw incision, KIRA6 25 mg/kg, MKC8866 20 mg/kg; for flinching activity after paw incision / grimace score post-surgery / guarding score post-surgery / hind paw weight bearing distribution after paw incision / mechanical hypersensitivity (mechanical threshold) after paw incision / rearing activity after paw incision: Celecoxib 20 mg/kg, vs vehicle; for post-operative pain behaviors: figure legend
Procedure: Plantar incision surgery was performed as described by Pogatzki & Raja (Anesthesiology 99, 1023 (October 2003)). Briefly, mice were anesthetized with isoflurane in oxygen (4% induction, 1.5%-2% for maintenance) and the right hind paw was aseptically cleaned with 10% povidone-iodine solution. Then, a 5 mm incision was made in the glabrous hind-paw skin from the heel to the base of the toes using a No. 11 scalpel and sterile technique. The underlying muscle and ligaments were elevated with a curved forceps and stretched for 6-8 seconds, without incising them. The incision was closed using 5.0 nylon mattress sutures.
as §3
Mice were placed in individual acrylic chambers on an elevated mesh floor for 30-45 min before testing. Two spontaneous pain-relate behaviors were evaluated, rearings and paw flinches. Following the acclimatization period, the number of total vertical rearings and paw flinches were quantified during a 2-min period. Vertical rearings were defined as the number of times that the animal stood supporting its weight on both hind limbs. Vertical rearings are a normal behavior in rodents, thus a reduction of this behavior is indicative of a protective way to prevent pain due to movement, which mimics pain induced by surgeries in humans. Spontaneous flinching of the affected paw was quantified every time that the animal shacked the affected paw without any stimulation. Flinches of the injured paw is a pain-related behavior that is indicative of breakthrough pain, similar to intense spontaneous spike of pain in humans with postoperative pain.
Mechanical hypersensitivity was assessed after quantification of vertical rearings and spontaneous flinching. Mechanical withdrawal thresholds were calculated using the up-down method and applying force with calibrated Von Frey filaments (0.07-g, 0.17-g, 0.40-g, 0.60-g, 1.04-g, 1.37-g, and 2.0-g, Stoeling, Wood Dale, Ill., USA) to the plantar aspect of the paw for 5 seconds. Paw withdraws or flinching in response to a given applied force was noted as a positive response.
Hind paw weight bearing distribution was determined using an incapacitance tester apparatus (Stoelting, Ill., version 5.64). This is a test for non-reflexive behaviors that represents a spontaneous pain-related behavior that mimics postoperative pain behaviors in humans (protection of the surgery site from normal activities). Before surgery, animals were habituated for at least 3 days to the apparatus, in which animals stand with each hind paw resting on individual weight plates inside an acrylic chamber. The apparatus measures the body weight distributed between the two hind paws over a 3 second period and provides the average measurement. The average value of each hind paw was used to determine the weight distribution ratio (ispsilateral/contralateral side). A ratio below one indicates a greater weight bearing on the contralateral paw and was therefore considered as a pain-related behavior.
To determine whether pharmacological targeting of IRE1α could also modulate post-surgical pain. KIRA6 (FIG. 9A-9F) or MKC8866 (FIG. 10) was administered i.p. 6 hours and 30 minutes prior to paw incision surgery, and pain responses were monitored thereafter. […] Consistent with our results using conditional IRE1α-deficient mice, mechanical hypersensitivity remained unaltered upon administration of IRE1α inhibitors (FIGS. 9F and 10F). As a positive control, we administered equimolar amounts (20 mg/kg) of Celecoxib following the same scheme and route described above. […]

SMILES | Ptges expression in peritoneal leukocytes (IRE1α-XBP1 signaling) | Xbp1s expression in peritoneal leukocytes (IRE1α-XBP1 signaling) | number of writhings after acetic acid injection (C57BL/6J mice [1]) | flinching activity after paw incision (C57BL/6J mice [2]) | grimace score post-surgery (C57BL/6J mice [2]) | guarding score post-surgery (C57BL/6J mice [2]) | hind paw weight bearing distribution after paw incision (C57BL/6J mice [2]) | mechanical hypersensitivity (mechanical threshold) after paw incision (C57BL/6J mice [2]) | rearing activity after paw incision (C57BL/6J mice [2]) | post-operative pain behaviors (C57BL/6J mice [2])
CC(C)(C)c1nc(-c2ccc(NC(=O)Nc3cccc(C(F)(F)F)c3)c3ccccc23)c2c(N)nccn12 [KIRA6] | significantly reduced | significantly reduced | reduced; also recorded: decreased | reduced | significantly reduced | significantly reduced | more balanced | unaltered | unchanged | reduces
COc1cc2c(C)c(CC(=O)N3CCOCC3)c(=O)oc2c(C=O)c1O [MKC8866] | significantly reduced | significantly reduced | reduced; also recorded: decreased | reduced | significantly reduced | significantly reduced | more balanced | unaltered | unchanged | reduces
